Experimental data taken from PMC10605449 (Biosensors, 2023).
Substitutions are numbered along the chain they refer to.

Experiments:
Format in all cases: binding
[1] = biological target: T1, MARK3(48-370) Mutant 4 (Homo sapiens, UniProt P27448, A68G/E139D/F199L/F67Y/I62L/L128I/L130I/N66T/T204H/V116I/V205Q); assay: SPR Extract2Chip, cellular biotinylated MARK3 Mutant 4, GSK461364A injected; conditions: 15 °C
T1 construct: made in house; host or cells: E. coli Rosetta 2, co-expressed with BirA; soluble lysate used without purification
T1 sequence (P27448 48-370 I62L/N66T/F67Y/A68G/V116I/L128I/L130I/E139D/F199L/T204H/V205Q): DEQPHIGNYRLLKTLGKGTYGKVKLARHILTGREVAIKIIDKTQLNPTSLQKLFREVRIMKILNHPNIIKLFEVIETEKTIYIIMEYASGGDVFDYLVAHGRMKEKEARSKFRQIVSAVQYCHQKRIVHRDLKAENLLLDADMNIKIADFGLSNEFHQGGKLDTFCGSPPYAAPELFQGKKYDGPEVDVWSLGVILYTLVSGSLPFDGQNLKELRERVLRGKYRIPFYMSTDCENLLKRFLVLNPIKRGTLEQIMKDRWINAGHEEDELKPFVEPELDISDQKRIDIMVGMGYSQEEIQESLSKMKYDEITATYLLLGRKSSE
Description: (§1) The cellular biotinylation of MARK3(48-370) kinase domain mutants followed the same approach as described for CypD. The 6 different mutants were expressed in Rosetta^TM 2 in PB media, and induced with 100 µM IPTG overnight at 18 °C.
(§2) The cellular biotinylated MARK3 NUAK2-like mutants were immobilized using the approach described in Section 2.5.2. The soluble cell lysates were diluted to a final concentration of 200 µg/mL, then injected over the neutravidin surfaces for 200 or 1400 s in order to reach 1000 to 2300 RU.
(§3) The interaction analysis cycles consisted of 140 s of sample injection followed by 350 to 600 s of running buffer flow. The running buffer was composed of 20 mM HEPES pH 7.4, 100 mM NaCl, 5 mM MgCl2, 1 mM EGTA, 1 mM DTT, 0.05% Tween-20, and 2% DMSO, and the experiment was performed at 15 °C.
(§4) All sensorgrams were processed by first subtracting the binding response recorded from the control surface (reference spot, where only the avidin protein is immobilized), followed by subtraction of the buffer blank injection from the reaction spot. All datasets were fitted to a simple 1:1 Langmuir interaction model to determine the kinetic rate constants, and the interaction affinity was additionally calculated at a steady state when applicable. […]

[2] = biological target: T2, NUAK2(1-628) (Homo sapiens, UniProt Q9H093); assay: SPR, pure GST-NUAK2(1-628) immobilized by amine coupling, GSK461364A injected; conditions: pure NUAK2(1-628); 15 °C
T2 construct: GST-NUAK2(1-628) was purchased from Carna Biosciences, Inc (Kobe, Japan); purchased Carna Biosciences, Inc (Kobe, Japan)
T2 sequence (Q9H093 1-628): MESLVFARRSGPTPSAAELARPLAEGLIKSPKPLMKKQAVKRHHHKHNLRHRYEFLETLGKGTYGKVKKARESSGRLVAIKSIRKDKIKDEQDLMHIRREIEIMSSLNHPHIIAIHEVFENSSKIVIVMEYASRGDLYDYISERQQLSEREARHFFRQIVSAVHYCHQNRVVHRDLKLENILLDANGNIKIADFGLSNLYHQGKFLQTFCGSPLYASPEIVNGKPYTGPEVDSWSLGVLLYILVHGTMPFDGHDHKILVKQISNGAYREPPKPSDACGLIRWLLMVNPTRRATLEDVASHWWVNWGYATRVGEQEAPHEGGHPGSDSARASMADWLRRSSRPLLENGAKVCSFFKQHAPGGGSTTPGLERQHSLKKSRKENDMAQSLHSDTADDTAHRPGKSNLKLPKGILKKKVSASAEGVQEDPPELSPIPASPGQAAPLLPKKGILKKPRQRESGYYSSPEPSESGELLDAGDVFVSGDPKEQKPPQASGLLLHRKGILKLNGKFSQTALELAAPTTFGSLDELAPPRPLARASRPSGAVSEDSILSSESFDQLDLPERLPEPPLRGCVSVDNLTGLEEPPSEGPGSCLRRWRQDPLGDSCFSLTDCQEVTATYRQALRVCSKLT
Description: as §3
All sensorgrams were processed by first subtracting the binding response recorded from the control surface (reference spot, where only the avidin protein is immobilized), followed by subtraction of the buffer blank injection from the reaction spot. All datasets were fitted to a simple 1:1 Langmuir interaction model to determine the kinetic rate constants, and the interaction affinity was additionally calculated at a steady state when applicable. In cases where small molecules were present during the assay, a DMSO solvent correction (1–3%) was applied to account for variations in bulk signal and to achieve high-quality data. The experiments with immobilized purified proteins were performed on a Biacore 4000 (Cytiva, Uppsala, Sweden), and the interaction was evaluated using the provided Biacore 4000 evaluation software, while the experiments with soluble cell lysates on a Biacore T200 (Cytiva, Uppsala, Sweden) used the provided Biacore T200 evaluation software. All SPR experiments were performed in duplicate.

[3] = biological target: T3, MARK3(48-370) Mutant 3 (Homo sapiens, UniProt P27448, A68G/E139D/F67Y/I62L/L128I/L130I/N66T/T204H/V116I/V205Q); assay: SPR Extract2Chip, cellular biotinylated MARK3 Mutant 3, GSK461364A injected; conditions: 15 °C
T3 construct: made in house; host or cells: E. coli Rosetta 2, co-expressed with BirA; soluble lysate used without purification
T3 sequence (P27448 48-370 I62L/N66T/F67Y/A68G/V116I/L128I/L130I/E139D/T204H/V205Q): T1 sequence (P27448 48-370 I62L/N66T/F67Y/A68G/V116I/L128I/L130I/E139D/F199L/T204H/V205Q) with L152F
Description: as §1, §2, §3, §4

[4] = biological target: T4, MARK3(48-370) Mutant 5 (Homo sapiens, UniProt P27448, A68G/E139D/F199L/F67Y/G137R/I62L/L128I/L130I/N66T/T204H/V116I/V205Q); assay: SPR Extract2Chip, cellular biotinylated MARK3 Mutant 5, GSK461364A injected; conditions: 15 °C
T4 construct: made in house; host or cells: E. coli Rosetta 2, co-expressed with BirA; soluble lysate used without purification
T4 sequence (P27448 48-370 I62L/N66T/F67Y/A68G/V116I/L128I/L130I/G137R/E139D/F199L/T204H/V205Q): T1 sequence (P27448 48-370 I62L/N66T/F67Y/A68G/V116I/L128I/L130I/E139D/F199L/T204H/V205Q) with G90R
Description: as §1, §2, §3, §4

kd ± SD [1]: 0.029 ± 0.0028 s⁻¹
kd ± SD [2]: 0.031 ± 0.017 s⁻¹
kd ± SD [3]: 0.028 ± 0.003 s⁻¹
kd ± SD [4]: 0.035 ± 0.012 s⁻¹
SMILES: C[C@@H](Oc1cc(-n2cnc3ccc(CN4CCN(C)CC4)cc32)sc1C(N)=O)c1ccccc1C(F)(F)F [GSK461364A]
